These results are taken from patent publication US10626118B2, “Pyrrolopyrimidine crystal for preparing JAK inhibitor” (Chia Tai Tianqing Pharmaceutical Group Co., Ltd., priority 2016, dated 2020).

Read-outs that look alike come from different tables or passages of the source.

The nature of data set [1]: Stability test, open clean container at 60° C. It is filed as physicochemical. The method, then:
The crystal A obtained in Method 1 of Example 2 and the crystal B obtained in Example 3 were placed in an open clean container at 60° C., and sampled for detection on days 5 and 10, respectively.

For data set [2] the following is noted: rats, 30 mg/kg PO; FDA pharmacology review; cited from earlier work.
The conditions of data set [3]: dogs, Male, FDA pharmacology review, cited from earlier work.

Take `N#CC[C@H](C1CCCC1)n1cc(-c2ncnc3[nH]ccc23)c(N)n1` [Crystal B of compound represented by formula I] [(3R)-3-[3-amino-4-(7H-pyrrolo[2,3-d]pyrimidin-4-yl)-1H-pyrazol-1-yl]-3-cyclopentyl-propionitrile]: the “Content (%)” value was 99.23% in data set [1] (Day 0), 99.23% in data set [1] (Day 5) and 99.22% in data set [1] (Day 10). In addition, the “Total Impurity (%)” value in data set [1] (Day 0) is 0.77%; in data set [1] (Day 5), 0.77%; in data set [1] (Day 10), 0.78%.
Regarding `N#CC[C@H](C1CCCC1)n1cc(-c2ncnc3[nH]ccc23)c(N)n1` [Crystal A of compound represented by formula I] [(3R)-3-[3-amino-4-(7H-pyrrolo[2,3-d]pyrimidin-4-yl)-1H-pyrazol-1-yl]-3-cyclopentyl-propionitrile], the “Content (%)” value in data set [1] (Day 0) stood at 99.72%; in data set [1] (Day 5) it was 99.71%; in data set [1] (Day 10), 99.73%. The “Total Impurity (%)” value in data set [1] (Day 0) is reported as 0.28%; in data set [1] (Day 5), 0.29%; in data set [1] (Day 10), 0.27%.
As to `N#CC[C@H](C1CCCC1)n1cc(-c2ncnc3[nH]ccc23)cn1` [Ruxolitinib], the AUCINFobs in data set [2] is 1345 ng·h/mL. Further, the results for the AUCINF_obs in data set [3] (IV 5 mg/kg) and in data set [3] (PO 10 mg/kg) were 13776 ng·h/mL and 15716 ng·h/mL, respectively.
